Experimental findings from US20070037230A1 (priority 2005, published 2007) are described below.

Among the test systems are Bacillus megaterium; Bacillus subtilis; Bacillus licheniformis; Bacillus cereus; Bacillus thuringiensis.
What all share (type): binding
For assay [1], the system named is Bacillus anthracis spores.
Assay [2] relates to biotinylated Bacillus anthracis spores.
Assay [3] deals with Bacillus anthracis spores. The source holds these as a separate data set.

For DARGTTHM, in assay [1], the “binding in the phage-capture assay (percentage recovery, eluted to input phage)” value is “high binding”. In assay [2], the “binding in the ELISA” value is recorded as “high binding”. Also, the “bound to Bacillus anthracis fold better than to Bacillus megaterium” value with Bacillus megaterium worked out at 75 fold. Further, the “bound to Bacillus anthracis fold better than to Bacillus subtilis” value in the assay with Bacillus subtilis is 25 fold. Besides, the “bound to Bacillus anthracis fold better than to Bacillus licheniformis” value in the assay on Bacillus licheniformis is given as 50 fold. For the same sequence, the “bound to Bacillus anthracis fold better than to Bacillus cereus” value with Bacillus cereus was determined as 3.7 fold. Moreover, the “bound to Bacillus anthracis fold better than to Bacillus thuringiensis” value in the assay with Bacillus thuringiensis was 2.1 fold.

For the sequence EPRLSPHS, the “binding in the phage-capture assay (percentage recovery, eluted to input phage)” value in assay [1] is on record as “high binding”. The “binding in the ELISA” value in assay [2] is recorded as “high binding”. Moreover, the “bound to Bacillus anthracis fold better than to Bacillus megaterium” value in the assay with Bacillus megaterium is reported as 43 fold. Moreover, in the assay with Bacillus subtilis, the “bound to Bacillus anthracis fold better than to Bacillus subtilis” value was 39 fold. Further, the “bound to Bacillus anthracis fold better than to Bacillus licheniformis” value with Bacillus licheniformis was 70 fold. For the same sequence, the “bound to Bacillus anthracis fold better than to Bacillus cereus” value in the assay with Bacillus cereus was found to be 3.5 fold. For the same sequence, the “bound to Bacillus anthracis fold better than to Bacillus thuringiensis” value in the assay with Bacillus thuringiensis is reported as 6.9 fold.

As to DRTGATLT, the “binding in the phage-capture assay (percentage recovery, eluted to input phage)” value in assay [1] is reported as “high binding”.

With ETRVPHGA, the “binding in the ELISA” value in assay [2] was “high binding”. Also, in the assay with Bacillus megaterium, the “bound to Bacillus anthracis fold better than to Bacillus megaterium” value was determined as 24 fold. Besides, the “bound to Bacillus anthracis fold better than to Bacillus subtilis” value in the assay with Bacillus subtilis is recorded as 24 fold. In the assay with Bacillus licheniformis, the “bound to Bacillus anthracis fold better than to Bacillus licheniformis” value came to 12 fold. In addition, the “bound to Bacillus anthracis fold better than to Bacillus cereus” value in the assay on Bacillus cereus is given as 2.4 fold. Further, the “bound to Bacillus anthracis fold better than to Bacillus thuringiensis” value with Bacillus thuringiensis came to 2.2 fold.

With EPRAPASL, the “binding in the phage-capture assay (percentage recovery, eluted to input phage)” value in assay [1] was “high binding”.

Consider VTRNTSAS, for which, in assay [1], the “binding in the phage-capture assay (percentage recovery, eluted to input phage)” value is given as “high binding”. In assay [2], the “binding in the ELISA” value is listed as “high binding”. Also, the “binding of phage to spores in ELISA revealed with monoclonal antibody BD8” value in assay [3] is “specific binding”.
